Test system: PDK1 kinase activity (phospho-T308-PKB) in PC3 cells
Assay: Cellular testing of PDK1 kinase inhibitors in PC3 cells (Luminex, phospho-T308-PKB)
Format: cell-based
Conditions: 30 min incubation, serum-free, read-out: IC50 PC3 cells [P-PKB T308]
Method: Method for the Cellular Testing of PDK1 Kinase Inhibitors in PC3 Cells.
The cellular assay for the determination of the PDK1 kinase activity is carried out as a Luminex assay in the 96-well format. PC3 cells are shown at 20,000 cells per well in 100 μl of medium (45% of […]/45% of Ham's F12/10% of FCS) and incubated on the following day for 30 min with a serial dilution of the test substance (7 concentrations) under serum-free conditions. The cells are subsequently lysed using 90 μl of lysis buffer (20 mM tris/HCl pH 8.0, 150 mM NaCl, 1% of NP40, 10% of glycerol, 1% of phosphatase inhibitor I, 1% of phosphatase inhibitor II, 0.1% of protease inhibitor cocktail III, 0.01% of benzonase) per well, and the lysates are separated off from insoluble cell constituents by means of centrifugation through a 96-well filter plate (0.65 μm). The lysates are incubated overnight at 4° C. with shaking with Luminex beads to which an anti-total PKB antibody is coupled. The detection is carried out on the following day by addition of a phospho-T308-PKB antibody and a species-specific peroxidase-labelled secondary antibody. The detection of phospho-T308-PKB is carried out by measurement in a Luminex100 instrument by determination of 100 events per cavity in a measurement time of 60 sec. As pharmacological blank, the signals obtained from cells which have been treated with 10 μM staurosporin are subtracted from all other batches. The control value used for maximum phosphorylation of PKB on T308 are the signals from cells which have only been treated with the solvent (0.3% of DMSO). The values of the batches treated with test substance are calculated therefrom as percentage of control, and IC50 values are determined by means of RS1.

| IC50 [µM] | SMILES |
| --- | --- |
| 0.95 | Cn1cc(-c2cnc3[nH]cc(-c4cc(C(C)(O)c5ccncc5)nc(N)n4)c3c2)cn1 (single isomer, unassigned) [A42, 1-{2-amino-6-[5-(1-methyl-1H-pyrazol-4-yl)-1H-pyrrolo[2,3-b]pyridin-3-yl]-pyrimidin-4-yl}-1-pyridin-4-ylethanol] |

Same assay, conditions: Homo sapiens, PC-3, 0.5 h, 30 min incubation, serum-free, read-out: IC50 PC3 cells [P-PKB T308]

| IC50 [µM] | SMILES |
| --- | --- |
| 0.98 | Cn1cc(-c2cnc3[nH]cc(-c4cc(C(C)(O)c5ccncc5)nc(N)n4)c3c2)cn1 (single isomer, unassigned) [A41, 1-{2-amino-6-[5-(1-methyl-1H-pyrazol-4-yl)-1H-pyrrolo[2,3-b]pyridin-3-yl]-pyrimidin-4-yl}-1-pyridin-4-ylethanol] |
| 0.348 | CC[C@](O)(c1ccncc1)c1cc(-c2c[nH]c3ncc(-c4cnn(CC(=O)N5CCCCC5)c4)cc23)nc(N)n1 (single isomer, unassigned) [A45] |
| 0.061 | Cn1cc(-c2cnc3[nH]cc(-c4cc(C(C)(O)c5ccccc5F)nc(N)n4)c3c2)cn1 (single isomer, unassigned) [A103, 1-{2-amino-6-[5-(1-methyl-1H-pyrazol-4-yl)-1H-pyrrolo[2,3-b]pyridin-3-yl]-pyrimidin-4-yl}-1-(2-fluorophenyl)ethanol] |

Biological target: T1, PDK1 (Homo sapiens, UniProt O15530)
T1 construct: His6 (N)
T1 sequence (O15530 51-556 limits assumed): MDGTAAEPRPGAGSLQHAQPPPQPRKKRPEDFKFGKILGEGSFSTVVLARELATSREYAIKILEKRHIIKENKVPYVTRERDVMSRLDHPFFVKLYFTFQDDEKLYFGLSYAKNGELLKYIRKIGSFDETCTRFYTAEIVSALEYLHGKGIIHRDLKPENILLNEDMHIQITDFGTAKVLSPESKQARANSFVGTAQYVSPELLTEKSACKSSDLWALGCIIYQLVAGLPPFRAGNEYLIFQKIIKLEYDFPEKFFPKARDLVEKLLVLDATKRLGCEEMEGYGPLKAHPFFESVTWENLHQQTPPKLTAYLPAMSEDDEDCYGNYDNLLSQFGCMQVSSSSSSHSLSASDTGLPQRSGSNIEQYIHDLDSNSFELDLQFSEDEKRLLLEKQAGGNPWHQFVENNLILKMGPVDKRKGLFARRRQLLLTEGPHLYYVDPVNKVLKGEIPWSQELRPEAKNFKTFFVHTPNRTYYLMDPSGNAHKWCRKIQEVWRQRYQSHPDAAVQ
Assay: Test for the inhibition of PDK1 (flashplate, 33P-ATP)
Format: biochemical
Conditions: His6-PDK1 3.4 nM, 4 μM ATP, 30° C., 60 min
How it was run: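 His6-PDK1(1-50) (3.4 nM) and a biotinylated peptide substrate (400 nM) were incubated 60 min at 30° C with 4 μM ATP containing ^33P-ATP and test compound. Incorporated radioactivity was counted after subtracting a 100 nM staurosporine blank and expressed as % of control; IC50 derived from these.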

| SMILES | IC50 [µM] |
| --- | --- |
| Cn1cc(-c2cnc3[nH]cc(-c4cc(C(C)(O)c5ccncc5)nc(N)n4)c3c2)cn1 (single isomer, unassigned) [A41, 1-{2-amino-6-[5-(1-methyl-1H-pyrazol-4-yl)-1H-pyrrolo[2,3-b]pyridin-3-yl]-pyrimidin-4-yl}-1-pyridin-4-ylethanol] | 0.0034 |
| Cn1cc(-c2cnc3[nH]cc(-c4cc(C(C)(O)c5ccncc5)nc(N)n4)c3c2)cn1 (single isomer, unassigned) [A42, 1-{2-amino-6-[5-(1-methyl-1H-pyrazol-4-yl)-1H-pyrrolo[2,3-b]pyridin-3-yl]-pyrimidin-4-yl}-1-pyridin-4-ylethanol] | 0.0032 |
| CC[C@](O)(c1ccncc1)c1cc(-c2c[nH]c3ncc(-c4cnn(CC(=O)N5CCCCC5)c4)cc23)nc(N)n1 (single isomer, unassigned) [A45] | 0.008 |
| C=C(CF)n1cc(-c2cnc3[nH]cc(-c4cc(C(C)(O)c5ccccc5)nc(N)n4)c3c2)cn1 (centres unmarked) [A79, 1-(2-amino-6-{5-[1-(1-fluoromethylvinyl)-1H-pyrazol-4-yl]-1H-pyrrolo[2,3-b]-pyridin-3-yl}pyrimidin-4-yl)-1-phenylethanol] | 0.068 |
| CC(O)(c1ccccc1)c1cc(-c2c[nH]c3ncc(-c4cnn(C(CF)CF)c4)cc23)nc(N)n1 (centres unmarked) [A80, 1-(2-amino-6-{5-[1-(2-fluoro-1-fluoromethylethyl)-1H-pyrazol-4-yl]-1H-pyrrolo[2,3-b]pyridin-3-yl}pyrimidin-4-yl)-1-phenylethanol] | 0.017 |
| CC(O)(c1ccccc1)c1cc(-c2c[nH]c3ncc(-c4cnn(CCF)c4)cc23)nc(N)n1 (centres unmarked) [A81, 1-(2-amino-6-{5-[1-(2-fluoroethyl)-1H-pyrazol-4-yl]-1H-pyrrolo[2,3-b]pyridin-3-yl}pyrimidin-4-yl)-1-phenylethanol] | 0.019 |
| CC(O)(c1ccccc1)c1cc(-c2c[nH]c3ncc(-c4cnn(CC(F)F)c4)cc23)nc(N)n1 (centres unmarked) [A84, 1-(2-amino-6-{5-[1-(2,2-difluoroethyl)-1H-pyrazol-4-yl]-1H-pyrrolo[2,3-b]-pyridin-3-yl}pyrimidin-4-yl)-1-phenylethanol] | 0.05 |
| CC(O)(c1ccccc1)c1cc(-c2c[nH]c3ncc(Br)cc23)nc(N)n1 (centres unmarked) [A86, 1-[2-amino-6-(5-bromo-1H-pyrrolo[2,3-b]pyridin-3-yl)pyrimidin-4-yl]-1-phenylethanol] | 0.089 |
| CC(C)n1cc(-c2cnc3[nH]cc(-c4cc(C(C)(O)C(C)C)nc(N)n4)c3c2)cn1 (centres unmarked) [A88, 2-{2-amino-6-[5-(1-isopropyl-1H-pyrazol-4-yl)-1H-pyrrolo[2,3-b]pyridin-3-yl]-pyrimidin-4-yl}-3-methylbutan-2-ol] | 0.028 |
| Cc1ccccc1C(C)(O)c1cc(-c2c[nH]c3ncc(-c4cnn(CCO)c4)cc23)nc(N)n1 (centres unmarked) [A89, 1-(2-amino-6-{5-[1-(2-hydroxyethyl)-1H-pyrazol-4-yl]-1H-pyrrolo[2,3-b]-pyridin-3-yl}pyrimidin-4-yl)-1-o-tolylethanol] | 0.019 |
| CC(O)(c1ccccc1)c1cc(-c2c[nH]c3ncc(-c4cnn(CCO)c4)cc23)nc(N)n1 (centres unmarked) [A99, 1-(2-amino-6-{5-[1-(2-hydroxyethyl)-1H-pyrazol-4-yl]-1H-pyrrolo[2,3-b]-pyridin-3-yl}pyrimidin-4-yl)-1-phenylethanol] | 0.041 |
| CC(O)(c1ccccc1)c1cc(-c2c[nH]c3ncc(-c4cncnc4)cc23)nc(N)n1 (centres unmarked) [A100, 1-[2-amino-6-(5-pyrimidin-5-yl-1H-pyrrolo[2,3-b]pyridin-3-yl)pyrimidin-4-yl]-1-phenylethanol] | 1.7 |
| CC(O)(c1ccccc1)c1cc(-c2c[nH]c3ncc(-c4ccnnc4)cc23)nc(N)n1 (centres unmarked) [A101, 1-[2-amino-6-(5-pyridazin-4-yl-1H-pyrrolo[2,3-b]pyridin-3-yl)pyrimidin-4-yl]-1-phenylethanol] | 0.74 |

Results, then the compound that gave them:

| IC50 [µM] | SMILES |
| --- | --- |
| 0.01 | Cn1cc(-c2cnc3[nH]cc(-c4cc(C(C)(O)c5ccccc5F)nc(N)n4)c3c2)cn1 (single isomer, unassigned) [A103, 1-{2-amino-6-[5-(1-methyl-1H-pyrazol-4-yl)-1H-pyrrolo[2,3-b]pyridin-3-yl]-pyrimidin-4-yl}-1-(2-fluorophenyl)ethanol] |
| 0.061 | CCOC(=O)CCn1cc(-c2cnc3[nH]cc(-c4cc(C(C)(OCOC)c5ccccc5)nc(N)n4)c3c2)cn1 (centres unmarked) [A78, ethyl 3-(4-{3-[2-amino-6-(1-methoxymethoxy-1-phenylethyl)pyrimidin-4-yl]-1H-pyrrolo[2,3-b]pyridin-5-yl}pyrazol-1-yl)propionate] |
| 0.078 | CC(C)C(O)(c1ccccc1)c1cc(-c2c[nH]c3ncc(-c4cnn(C)c4)cc23)nc(N)n1 (centres unmarked) [A82, 1-{2-amino-6-[5-(1-methyl-1H-pyrazol-4-yl)-1H-pyrrolo[2,3-b]pyridin-3-yl]-pyrimidin-4-yl}-2-methyl-1-phenylpropan-1-ol] |
| 0.059 | CC(O)(c1ccccc1)c1cc(-c2c[nH]c3ncc(-c4cnn(CC5CC5)c4)cc23)nc(N)n1 (centres unmarked) [A83, 1-{2-amino-6-[5-(1-cyclopropylmethyl-1H-pyrazol-4-yl)-1H-pyrrolo[2,3-b]-pyridin-3-yl]pyrimidin-4-yl}-1-phenylethanol] |
| 0.052 | Cn1cc(-c2cnc3[nH]cc(-c4cc(C(O)(c5ccccc5)C5CCCC5)nc(N)n4)c3c2)cn1 (centres unmarked) [A85, {2-amino-6-[5-(1-methyl-1H-pyrazol-4-yl)-1H-pyrrolo[2,3-b]pyridin-3-yl]-pyrimidin-4-yl}cyclopentylphenylmethanol] |
| 0.016 | CCCC(C)(O)c1cc(-c2c[nH]c3ncc(-c4cnn(C(C)C)c4)cc23)nc(N)n1 (centres unmarked) [A87, 2-{2-amino-6-[5-(1-isopropyl-1H-pyrazol-4-yl)-1H-pyrrolo[2,3-b]pyridin-3-yl]-pyrimidin-4-yl}pentan-2-ol] |
| 0.06 | Cc1cccc(C(C)(O)c2cc(-c3c[nH]c4ncc(-c5cnn(CCO)c5)cc34)nc(N)n2)c1 (centres unmarked) [A94, 1-(2-amino-6-{5-[1-(2-hydroxyethyl)-1H-pyrazol-4-yl]-1H-pyrrolo[2,3-b]-pyridin-3-yl}pyrimidin-4-yl)-1-m-tolylethanol] |
| 0.018 | CNc1nc(-c2c[nH]c3ncc(-c4cnn(CCO)c4)cc23)cc(C(C)(O)c2ccccc2)n1 (centres unmarked) [A95, 1-(6-{5-[1-(2-hydroxyethyl)-1H-pyrazol-4-yl]-1H-pyrrolo[2,3-b]pyridin-3-yl}-2-methylaminopyrimidin-4-yl)-1-phenylethanol] |
| 0.012 | CCC(O)(c1ccccc1)c1cc(-c2c[nH]c3ncc(-c4cnn(CCO)c4)cc23)nc(N)n1 (centres unmarked) [A98, 1-(2-amino-6-{5-[1-(2-hydroxyethyl)-1H-pyrazol-4-yl]-1H-pyrrolo[2,3-b]-pyridin-3-yl}pyrimidin-4-yl)-1-phenylpropan-1-ol] |
| 0.049 | COCOC(C)(c1ccnc(C)c1)c1cc(-c2c[nH]c3ncc(-c4cnn(C)c4)cc23)nc(N)n1 (centres unmarked) [A108, 4-[1-methoxymethoxy-1-(2-methylpyridin-4-yl)ethyl]-6-[5-(1-methyl-1H-pyrazol-4-yl)-1H-pyrrolo[2,3-b]pyridin-3-yl]pyrimidin-2-ylamine] |
| 0.0078 | Cn1cc(-c2cnc3[nH]cc(-c4cc(C(C)(O)c5ccnnc5)nc(N)n4)c3c2)cn1 (centres unmarked) [A109, 1-{2-amino-6-[5-(1-methyl-1H-pyrazol-4-yl)-1H-pyrrolo[2,3-b]pyridin-3-yl]-pyrimidin-4-yl}-1-pyridazin-4-ylethanol] |
| 0.026 | Cn1cc(-c2cnc3[nH]cc(-c4cc(C(C)(O)c5ccc(=O)[nH]c5)nc(N)n4)c3c2)cn1 (centres unmarked) [A111, 5-(1-{2-amino-6-[5-(1-methyl-1H-pyrazol-4-yl)-1H-pyrrolo[2,3-b]pyridin-3-yl]-pyrimidin-4-yl}-1-hydroxyethyl)-1H-pyridin-2-one] |
